In ChEMBL document CHEMBL3351798, “Discovery of the CCR1 antagonist, BMS-817399, for the treatment of rheumatoid arthritis” (J Med Chem, 2014):
Calls of active or inactive are those of the source. The rule behind the calls is not given here.

Columns and labels:
[1] = target: T1, C-C chemokine receptor type 1 (Homo sapiens, UniProt P32246); experiment: Displacement of [125I]MIP-1alpha from CCR1 in human THP1 cells; assay type: cell-based, THP-1
T1 sequence (P32246 whole entry): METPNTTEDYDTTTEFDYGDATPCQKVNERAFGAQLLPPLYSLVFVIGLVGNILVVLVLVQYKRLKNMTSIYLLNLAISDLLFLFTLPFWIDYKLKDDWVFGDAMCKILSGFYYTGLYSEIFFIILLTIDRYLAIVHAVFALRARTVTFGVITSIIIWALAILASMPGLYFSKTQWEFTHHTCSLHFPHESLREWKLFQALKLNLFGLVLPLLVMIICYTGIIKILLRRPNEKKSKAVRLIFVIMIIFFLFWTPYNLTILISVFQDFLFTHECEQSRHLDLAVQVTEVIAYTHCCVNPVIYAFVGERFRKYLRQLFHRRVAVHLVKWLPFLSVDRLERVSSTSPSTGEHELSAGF

[2] = target: T1, C-C chemokine receptor type 1; experiment: Displacement of [125I]hMIP-1alpha from CCR1 in human PBMC
[3] = Displacement of [125I]hMIP-1alpha from rat CCR1
[4] = target: T2, Chemokine (C-C motif) receptor 1 (Canis lupus familiaris, UniProt Q2V0Q7); experiment: Displacement of [125I]hMIP-1alpha from dog PBMC CCR1
T2 sequence (Q2V0Q7 whole entry): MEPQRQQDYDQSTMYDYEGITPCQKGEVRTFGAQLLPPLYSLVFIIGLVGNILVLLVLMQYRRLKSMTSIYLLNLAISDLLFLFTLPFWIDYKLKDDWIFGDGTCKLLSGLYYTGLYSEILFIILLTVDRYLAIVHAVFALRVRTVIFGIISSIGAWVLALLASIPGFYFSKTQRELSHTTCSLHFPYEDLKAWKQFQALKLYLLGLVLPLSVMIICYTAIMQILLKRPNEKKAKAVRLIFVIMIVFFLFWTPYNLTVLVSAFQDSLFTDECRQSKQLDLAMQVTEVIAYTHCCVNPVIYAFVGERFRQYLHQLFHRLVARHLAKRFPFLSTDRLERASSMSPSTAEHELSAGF

[5] = Metabolic stability in mouse liver microsomes assessed as compound remaining at 0.5 uM after 60 mins by UV-LC/MS analysis; assay type: ADME; conditions: read-out: Stability
[6] = target: T1, C-C chemokine receptor type 1; experiment: Antagonist activity at CCR1 receptor in human whole blood assessed as blocked of MIP-1alpha-mediated CD11b upregulation preincubated for 1 hr
[7] = Bioavailability in cynomolgus monkey at 5 mg/kg; assay type: ADME, organism-based, Macaca fascicularis; conditions: in vivo
[8] = target: T3, C-C chemokine receptor type 4 (Homo sapiens) (UniProt P51679); experiment: Binding affinity to CCR4 receptor (unknown origin)
T3 sequence (whole entry): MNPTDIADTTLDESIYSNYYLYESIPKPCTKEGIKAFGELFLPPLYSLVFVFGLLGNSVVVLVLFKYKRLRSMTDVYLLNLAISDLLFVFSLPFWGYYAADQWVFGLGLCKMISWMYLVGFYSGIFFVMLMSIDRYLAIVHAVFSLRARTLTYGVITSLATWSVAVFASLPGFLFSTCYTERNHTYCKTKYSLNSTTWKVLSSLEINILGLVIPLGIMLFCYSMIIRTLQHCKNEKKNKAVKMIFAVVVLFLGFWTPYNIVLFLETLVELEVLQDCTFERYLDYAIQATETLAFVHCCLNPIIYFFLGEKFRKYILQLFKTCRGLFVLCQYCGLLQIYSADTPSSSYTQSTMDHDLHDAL

[9] = target: C-C chemokine receptor type 5 (Homo sapiens) (UniProt P51681); experiment: Binding affinity to CCR5 receptor (unknown origin)
[10] = target: T4, C-X-C chemokine receptor type 2 (Homo sapiens) (UniProt P25025); experiment: Binding affinity to CXCR2 receptor (unknown origin)
T4 sequence (whole entry): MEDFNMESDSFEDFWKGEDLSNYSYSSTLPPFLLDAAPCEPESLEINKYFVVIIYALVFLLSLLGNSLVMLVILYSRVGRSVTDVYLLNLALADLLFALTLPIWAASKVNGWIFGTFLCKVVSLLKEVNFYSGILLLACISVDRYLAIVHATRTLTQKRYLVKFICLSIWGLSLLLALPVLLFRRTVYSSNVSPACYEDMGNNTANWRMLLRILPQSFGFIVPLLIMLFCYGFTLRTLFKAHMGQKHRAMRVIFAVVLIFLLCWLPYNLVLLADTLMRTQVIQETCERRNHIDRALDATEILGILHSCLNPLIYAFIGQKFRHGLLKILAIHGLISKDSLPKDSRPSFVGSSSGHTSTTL

[11] = target: Voltage-gated inwardly rectifying potassium channel KCNH2 (Homo sapiens, UniProt Q12809); experiment: Inhibition of human ERG
Homo sapiens = species on record: Homo sapiens; experiment: Inhibition of Na+ channel (unknown origin)

C-C chemokine receptor type 5 (Homo sapiens), sequence (P51681 whole entry, looked up): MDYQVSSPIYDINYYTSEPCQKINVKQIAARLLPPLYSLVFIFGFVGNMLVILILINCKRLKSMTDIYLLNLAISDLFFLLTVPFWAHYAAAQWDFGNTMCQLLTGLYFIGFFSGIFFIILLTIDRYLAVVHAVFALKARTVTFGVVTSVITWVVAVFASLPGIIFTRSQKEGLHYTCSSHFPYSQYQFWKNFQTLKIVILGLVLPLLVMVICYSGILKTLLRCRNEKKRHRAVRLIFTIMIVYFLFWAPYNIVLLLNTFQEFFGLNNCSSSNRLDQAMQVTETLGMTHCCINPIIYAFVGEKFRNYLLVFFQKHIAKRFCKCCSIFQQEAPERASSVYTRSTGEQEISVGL
Voltage-gated inwardly rectifying potassium channel KCNH2, sequence (Q12809 whole entry): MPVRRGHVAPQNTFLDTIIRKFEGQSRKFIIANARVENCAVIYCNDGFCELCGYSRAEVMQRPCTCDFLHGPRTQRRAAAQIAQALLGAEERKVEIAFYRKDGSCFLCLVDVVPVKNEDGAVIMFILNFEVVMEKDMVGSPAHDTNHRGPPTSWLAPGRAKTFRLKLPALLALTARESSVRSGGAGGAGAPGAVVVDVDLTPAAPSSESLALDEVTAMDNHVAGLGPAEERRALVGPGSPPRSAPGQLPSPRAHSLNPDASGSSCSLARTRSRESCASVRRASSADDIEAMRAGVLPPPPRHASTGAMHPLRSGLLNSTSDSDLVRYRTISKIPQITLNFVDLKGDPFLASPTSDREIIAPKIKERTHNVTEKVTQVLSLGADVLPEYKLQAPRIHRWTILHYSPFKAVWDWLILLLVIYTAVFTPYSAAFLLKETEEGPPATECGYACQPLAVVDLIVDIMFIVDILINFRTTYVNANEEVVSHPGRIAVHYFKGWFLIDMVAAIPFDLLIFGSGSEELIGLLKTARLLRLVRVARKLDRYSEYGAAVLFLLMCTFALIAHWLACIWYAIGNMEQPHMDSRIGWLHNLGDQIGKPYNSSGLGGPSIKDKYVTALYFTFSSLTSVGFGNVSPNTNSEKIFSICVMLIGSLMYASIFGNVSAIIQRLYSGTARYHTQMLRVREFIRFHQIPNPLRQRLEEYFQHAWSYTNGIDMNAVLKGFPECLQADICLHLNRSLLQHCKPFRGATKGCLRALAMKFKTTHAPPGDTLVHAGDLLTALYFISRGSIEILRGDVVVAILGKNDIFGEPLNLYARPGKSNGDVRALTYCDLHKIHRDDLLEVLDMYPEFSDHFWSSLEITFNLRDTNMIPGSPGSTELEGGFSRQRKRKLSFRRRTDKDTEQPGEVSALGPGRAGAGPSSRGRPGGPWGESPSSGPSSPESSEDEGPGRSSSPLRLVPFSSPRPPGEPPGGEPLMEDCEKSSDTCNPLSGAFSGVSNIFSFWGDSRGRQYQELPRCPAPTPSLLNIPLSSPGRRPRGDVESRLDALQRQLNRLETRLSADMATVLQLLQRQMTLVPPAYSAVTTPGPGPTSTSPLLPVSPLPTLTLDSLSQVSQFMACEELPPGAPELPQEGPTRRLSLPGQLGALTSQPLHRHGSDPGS

- IC50 [1]: 1 nM
- IC50 [2]: 4.2 nM
- IC50 [3]: > 50000 nM
- IC50 [4]: 635 nM
- remaining at 1 h, 0.5 µM [5]: 86%
- IC50 [6]: 25 nM
- bioavailability [7]: 40%
- Activity [8]: inactive
- Activity [9]: inactive
- Activity [10]: inactive
- inhibition (Homo sapiens): inactive
Compound: CC(C)[C@@H](NC(=O)NCC(C)(C)O)C(=O)N1CC[C@](O)(c2ccc(Cl)cc2)C(C)(C)C1 [BMS-817399]
- inhibition (INH) [11]: Not Active
